In ChEMBL document CHEMBL3751781, “Three-dimensional QSAR analysis and design of new 1,2,4-oxadiazole antibacterials” (2016):
In brackets after ≈: the same amount, converted by molar mass.

Tested on: Staphylococcus aureus
Assay: Antibacterial against Staphylococcus aureus
Assay type: functional
Details: for MIC: Staphylococcus aureus

SMILES	MIC [µg/mL]	-logMIC
Nc1c[nH]nc1-c1nc(-c2ccc(Oc3ccc(C(F)(F)F)cc3)cc2)no1	–	4.573
Oc1c(F)cc(-c2nc(-c3ccc(Oc4ccc(C(F)(F)F)cc4)cc3)no2)cc1F	–	5.381
Nc1c[nH]nc1-c1nc(-c2ccc(Oc3ccccc3)cc2)no1	–	2.994
FC(F)(F)c1ccc(Oc2ccc(-c3noc(-c4c[nH]c5ncccc45)n3)cc2)cc1	128 (≈ 303 µM)	1.194
COc1ccc(-c2nc(-c3ccc(Br)cc3)no2)cc1	128 (≈ 387 µM)	0.951
Cc1nc(-c2ccc(Oc3ccc(C(F)(F)F)cc3)cc2)no1	128 (≈ 400 µM)	0.917
Oc1ccc(Oc2ccc(-c3noc(-c4ccc(O)cc4)n3)cc2)cc1	32 (≈ 92.4 µM)	2.382
O=C(O)c1cccc(Oc2ccc(-c3noc(-c4ccc(O)cc4)n3)cc2)c1	64 (≈ 171 µM)	1.766
Oc1ccc(-c2nc(-c3ccc(Oc4ccccc4)c(Cl)c3)no2)cc1	2 (≈ 5.48 µM)	5.206
Oc1ccc(-c2nc(-c3ccc(Oc4ccccc4CBr)cc3)no2)cc1	8 (≈ 18.9 µM)	3.969
Fc1ccc(-c2nc(-c3ccccc3)no2)cc1	128 (≈ 533 µM)	0.63

More lines, main results first:

MIC [µg/mL]	SMILES	-logMIC
128 (≈ 311 µM)	Fc1ccc(Oc2ccc(-c3noc(-c4ccc(Br)cc4)n3)cc2)cc1	1.167
128 (≈ 341 µM)	NC(=O)c1ccc(-c2nc(-c3ccc(Oc4ccc(F)cc4)cc3)no2)cc1	1.158
128 (≈ 321 µM)	Nc1cncc(-c2nc(-c3ccc(Oc4ccc(C(F)(F)F)cc4)cc3)no2)c1	1.135
128 (≈ 398 µM)	Fc1ccc(Oc2ccc(-c3noc(-c4cc[nH]c4)n3)cc2)cc1	0.92
2 (≈ 5.19 µM)	O=[N+]([O-])c1c[nH]nc1-c1nc(-c2ccc(Oc3ccc(F)c(F)c3)cc2)no1	5.261
128 (≈ 367 µM)	Oc1ccc(Oc2ccc(-c3noc(-c4ccc(F)cc4)n3)cc2)cc1	1.001
1 (≈ 2.45 µM)	Clc1ccc(Oc2ccc(-c3noc(-c4n[nH]cc4Cl)n3)cc2)cc1Cl	6.01
